Where a name gives a salt, the structure may show the parent alone.
Key:
[1] = tested on: BT474 (human breast carcinoma); assay: In vitro tumor cell proliferation assay (Cell Titer-Glo luminescent cell viability), BT474 cells; assay type: cell-based; conditions: BT-474, 72 h drug exposure, ATP luminescence readout, read-out: IC50, anti-proliferative activity (inhibition of cell proliferation) in BT474 cells
Excerpt: (§1) The tumor cell proliferation assay used to test the compounds of the present invention involves a readout called Cell Titer-Glow® Luminescent Cell Viability Assay developed by Promega® (Cunningham, B A “A Growing Issue: Cell Proliferation Assays, Modern kits ease quantification of cell growth” The Scientist 2001, 15(13), 26, and Crouch, S P et al., “The use of ATP bioluminescence as a measure of cell proliferation and cytotoxicity” Journal of Immunological Methods 1993, 160, 81-88), that measures inhibition of cell proliferation. Generation of a luminescent signal corresponds to the amount of ATP present, which is directly proportional to the number of metabolically active (proliferating) cells.
(§2) A431 cells (human epidermoid carcinoma, ATCC # HTB-20) and BT474 (human breast carcinoma, ATCC # CRL-1555) were plated at a density of 2.5×10^3 cells/well in 96 well black-clear bottom tissue culture plates in RPMI media with 10% Fetal Bovine Serum and incubated at 37° C. Twenty-four h later, test compounds are added at a final concentration range from as high 100 μm to as low 64 pM depend on the activities of the tested compounds in serial dilutions at a final DMSO concentration of 0.1%. Cells were incubated for 72 h at 37° C. in complete growth media after addition of the test compound. After 72 h of drug exposure, the plates were equilibrated to room temperature for approximately 30 min. Then, using a Promega Cell Titer Glo Luminescent® assay kit, lysis buffer containing 100 microliters of the enzyme luciferase and its substrate, luciferin mixture, was added to each well. The plates were mixed for 2 min on orbital shaker to ensure cell lysis and incubated for 10 min at room temperature to stabilize luminescence signal. The samples were read on VICTOR 2 using Luminescence protocol, and analyzed with Analyze5 software to generate IC50 values.
(§3) For determination of IC50's, a linear regression analysis can be used to determine drug concentration which results in a 50% inhibition of cell proliferation using this assay format. In A431 cells, Examples 1-7, 9-11, 14-18, and 20-21 have IC50's≦5 μM; whereas examples 8, 12, 13, 19, and 22 have IC50's≦50 μM. In BT474 cells, examples 1-7, 9-11, 13-18, and 20-22 have IC50's≦50 μM; whereas examples 8, 12, and 19 have IC50's≦50 μM.

[2] = tested on: A431 cells (human epidermoid carcinoma); assay: In vitro tumor cell proliferation assay (Cell Titer-Glo luminescent cell viability), A431 cells; assay type: cell-based; conditions: A-431, 72 h drug exposure, ATP luminescence readout, read-out: IC50, anti-proliferative activity (inhibition of cell proliferation) in A431 cells
Excerpt: as §1, §2, §3

SMILES: OCCn1cc2c(ccc3c2sc2ncnc(Nc4ccc(F)c(Cl)c4)c23)n1 [Example 1, 2-{6-[(3-chloro-4fluorophenyl)amino]-2H-pyrimido[5′,4′:4,5]thieno[2,3-e]indazol-2-yl}ethanol]
- IC50 [1]: ≤ 50 µM
- IC50 [2]: ≤ 5 µM

SMILES: CS(=O)(=O)OCCn1cc2c(ccc3c2sc2ncnc(Nc4ccc(F)c(Cl)c4)c23)n1 [Example 2, 2-{6-[(3-chloro-4fluorophenyl)amino]-2H-pyrimido[5′,4′:4,5]thieno[2,3-e]indazol-2-yl}ethylmethanesulfonate]
- IC50 [1]: ≤ 50 µM
- IC50 [2]: ≤ 5 µM

SMILES: CS(=O)(=O)CCNCCn1cc2c(ccc3c2sc2ncnc(Nc4ccc(F)c(Cl)c4)c23)n1 [Example 3, N-(3-chloro-4-fluorophenyl)-2-(2-{[2-(methylsulfonyl)ethyl]amino}ethyl)-2H-pyrimido[5′,4′:4,5]thieno[2,3-e]indazol-6-amine]
- IC50 [1]: ≤ 50 µM
- IC50 [2]: ≤ 5 µM

SMILES: CN(C)[C@@H]1CCN(CCn2cc3c(ccc4c3sc3ncnc(Nc5ccc(F)c(Cl)c5)c34)n2)C1 [Example 4]
- IC50 [1]: ≤ 50 µM
- IC50 [2]: ≤ 5 µM

SMILES: Fc1ccc(Nc2ncnc3sc4c5cn(CCNCCN6CCOCC6)nc5ccc4c23)cc1Cl [Example 5, N-(3-chloro-4-fluorophenyl)-2-{2-[(2-morpholin-4-ylethyl)amino]ethyl}-2H-pyrimido[5′,4′:4,5]thieno[2,3-e]indazol-6-amine]
- IC50 [1]: ≤ 50 µM
- IC50 [2]: ≤ 5 µM

SMILES: COCCNCCn1cc2c(ccc3c2sc2ncnc(Nc4ccc(F)c(Cl)c4)c23)n1 [Example 6, N-(3-chloro-4-fluorophenyl)-2-{2-[(2-methoxyethyl)amino]ethyl}-2H-pyrimido[5′,4′:4,5]thieno[2,3-e]indazol-6-amine]
- IC50 [1]: ≤ 50 µM
- IC50 [2]: ≤ 5 µM

SMILES: OCCNCCn1cc2c(ccc3c2sc2ncnc(Nc4ccc(F)c(Cl)c4)c23)n1 [Example 7, 2-[(2-{6-[(3-chloro-4-fluorophenyl)amino]-2H-pyrimido[5′,4′:4,5]thieno[2,3-e]indazol-2-yl}ethyl)amino]ethanol]
- IC50 [1]: ≤ 50 µM
- IC50 [2]: ≤ 5 µM

SMILES: COCCN(CCOC)CCn1cc2c(ccc3c2sc2ncnc(Nc4ccc(F)c(Cl)c4)c23)n1 [Example 8, 2-{2-[bis(2-methoxyethyl)amino]ethyl}-N-(3-chloro-4-fluorophenyl)-2H-pyrimido[5′,4′:4,5]thieno[2,3-e]indazol-6-amine]
- IC50 [1]: ≤ 50 µM
- IC50 [2]: ≤ 50 µM

SMILES: Fc1ccc(Nc2ncnc3sc4c5cn(CCN6CCOCC6)nc5ccc4c23)cc1Cl [Example 9, N-(3-chloro-4-fluorophenyl)-2-(2-morpholin-4-ylethyl)-2H-pyrimido[5′,4′:4,5]thieno[2,3-e]indazol-6-amine]
- IC50 [1]: ≤ 50 µM
- IC50 [2]: ≤ 5 µM

SMILES: Fc1ccc(Nc2ncnc3sc4c5cn(CCN6CCNCC6)nc5ccc4c23)cc1Cl [Example 10, N-(3-chloro-4-fluorophenyl)-2-(2-piperazin-1-ylethyl)-2H-pyrimido[5′,4′:4,5]thieno[2,3-e]indazol-6-amine]
- IC50 [1]: ≤ 50 µM
- IC50 [2]: ≤ 5 µM

SMILES: CN1CCN(CCn2cc3c(ccc4c3sc3ncnc(Nc5ccc(F)c(Cl)c5)c34)n2)CC1 [Example 11, N-(3-chloro-4-fluorophenyl)-2-[2-(4-methylpiperazin-1-yl)ethyl]-2H-pyrimido[5′,4′:4,5]thieno[2,3-e]indazol-6-amine]
- IC50 [1]: ≤ 50 µM
- IC50 [2]: ≤ 5 µM

SMILES: Fc1ccc(Nc2ncnc3sc4c5cn(CCn6ccnc6)nc5ccc4c23)cc1Cl [Example 12, N-(3-chloro-4-fluorophenyl)-2-[2-(1H-imidazol-1-yl)ethyl]-2H-pyrimido[5′,4′:4,5]thieno[2,3-e]indazol-6-amine]
- IC50 [1]: ≤ 50 µM
- IC50 [2]: ≤ 50 µM

SMILES: CN(C)[C@H]1CCN(CCn2cc3c(ccc4c3sc3ncnc(Nc5ccc(F)c(Cl)c5)c34)n2)C1 [Example 13, N-(3-chloro-4-fluorophenyl)-2-{2-[(3S)-3-(dimethylamino)pyrrolidin-1-yl]ethyl}-2H-pyrimido[5′,4′:4,5]thieno[2,3-e]indazol-6-amine]
- IC50 [1]: ≤ 50 µM
- IC50 [2]: ≤ 50 µM

SMILES: OCCN(CCO)CCn1cc2c(ccc3c2sc2ncnc(Nc4ccc(F)c(Cl)c4)c23)n1 [Example 14, 2,2′-[(2-{6-[(3-chloro-4-fluorophenyl)amino]-2H-pyrimido[5′,4′:4,5]thieno[2,3-e]indazol-2-yl}ethyl)imino]diethanoltrifluoroacetate (salt)]
- IC50 [1]: ≤ 50 µM
- IC50 [2]: ≤ 5 µM

SMILES: COCCN1CCN(CCn2cc3c(ccc4c3sc3ncnc(Nc5ccc(F)c(Cl)c5)c34)n2)CC1 [Example 15, N-(3-chloro-4-fluorophenyl)-2-{2-[4-(2-methoxyethyl)piperazin-1-yl]ethyl}-2H-pyrimido[5′,4′:4,5]thieno[2,3-e]indazol-6-amine]
- IC50 [1]: ≤ 50 µM
- IC50 [2]: ≤ 5 µM

SMILES: Fc1ccc(Nc2ncnc3sc4c5cn(CCN6CCCCC6)nc5ccc4c23)cc1Cl [Example 16, N-(3-chloro-4-fluorophenyl)-2-(2-piperidin-1-ylethyl)-2H-pyrimido[5′,4′:4,5]thieno[2,3-e]indazol-6-amine]
- IC50 [1]: ≤ 50 µM
- IC50 [2]: ≤ 5 µM

SMILES: Fc1ccc(Nc2ncnc3sc4c5cn(CCN6CCCC6)nc5ccc4c23)cc1Cl [Example 17, N-(3-chloro-4-fluorophenyl)-2-(2-pyrrolidin-1-ylethyl)-2H-pyrimido[5′,4′:4,5]thieno[2,3-e]indazol-6-amine]
- IC50 [1]: ≤ 50 µM
- IC50 [2]: ≤ 5 µM

SMILES: Fc1ccc(Nc2ncnc3sc4c5cn(CCN6CCN(Cc7ccncc7)CC6)nc5ccc4c23)cc1Cl [Example 18, N-(3-chloro-4-fluorophenyl)-2-{2-[4-(pyridin-4-ylmethyl)piperazin-1-yl]ethyl}-2H-pyrimido[5′,4′:4,5]thieno[2,3-e]indazol-6-amine]
- IC50 [1]: ≤ 50 µM
- IC50 [2]: ≤ 5 µM

SMILES: COCCN(C)CCn1cc2c(ccc3c2sc2ncnc(Nc4ccc(F)c(Cl)c4)c23)n1 [Example 19, N-(3-chloro-4-fluorophenyl)-2-{2-[(2-methoxyethyl)(methyl)amino]ethyl}-2H-pyrimido[5′,4′:4,5]thieno[2,3-e]indazol-6-amine]
- IC50 [1]: ≤ 50 µM
- IC50 [2]: ≤ 50 µM

SMILES: CN(C)[C@H]1CCN(CCn2ncc3c4sc5ncnc(Nc6ccc(F)c(Cl)c6)c5c4ccc32)C1 [Example 20, N-(3-chloro-4-fluorophenyl)-3-{2-[(3S)-3-(dimethylamino)pyrrolidin-1-yl]ethyl}-3H-pyrimido[5′,4′:4,5]thieno[2,3-e]indazol-6-amine]
- IC50 [1]: ≤ 50 µM
- IC50 [2]: ≤ 5 µM

SMILES: OCCn1ncc2c3sc4ncnc(Nc5ccc(OCc6cccc(F)c6)c(Cl)c5)c4c3ccc21 [Example 21, 2-[6-({3-chloro-4-[(3-fluorobenzyl)oxy]phenyl}amino)-3H-pyrimido[5′,4′:4,5]thieno[2,3-e]indazol-3-yl]ethanol]
- IC50 [1]: ≤ 50 µM
- IC50 [2]: ≤ 5 µM

SMILES: Clc1cc(Nc2ncnc3sc4c(ccc5c4cnn5CCBr)c23)ccc1OCc1ccccn1 [Example 22, 3-(2-bromoethyl)-N-[3-chloro-4-(pyridin-2-ylmethoxy)phenyl]-3H-pyrimido[5′,4′:4,5]thieno[2,3-e]indazol-6-amine]
- IC50 [1]: ≤ 50 µM
- IC50 [2]: ≤ 50 µM
